Laboratory results published in article PMC3012033 (Lipids in Health and Disease, 2010).

Legend:
[1] = test system: B16F10 mice melanoma cell line; assay: B16F10 melanoma cell viability (MTT, Trypan Blue exclusion); assay type: cell-based
Procedure: B16F10 mice melanoma cell line was generously provided by Dr. Roger Chammas (USP, São Paulo, Brazil). Cells were routinely cultured in RPMI 1640 medium supplemented with 10% fetal bovine serum (FBS) at 37°C in a humidified atmosphere containing 5% CO2.
To dissolve the crystals of Formazan was used dimethylsulfoxide (DMSO). Quantification was obtained by the absorbance reading at a wavelength of 450 nm to 690 nm. Cell viability was also evaluated by the method of Trypan Blue exclusion (Invitrogen, Carlsbad, CA), by direct counting in a hemocytometer.

[2] = test system: B16F10 melanoma cells; assay: Cell cycle analysis by flow cytometry (propidium iodide); assay type: cell-based, mice; settings: 0.8 μM
Procedure: Cell cycle analysis was determined by flow cytometry at the Federal State University of Paraná. Briefly, after the different treatments, 2 × 10^6 cells were trypsinized, washed three times with PBS, fixed in 70% ethanol, and stained with Propidium Iodide (PI) solution. All analyses were done using a FACScalibur flow cytometer (Becton Dickinson, San Jose, CA). The red fluorescence of PI was collected through a 585/42-nm band -pass filter, and the fluorescence signals were measured in a linear scale of 1024 channels. For each sample, at least 10000 events were acquired and the data were analyzed using an appropriate software (CELLQuest, Becton Dickinson, San Jose, CA).

[3] = test system: B16F10 melanoma; assay: Tumor growth and survival of B16F10 melanoma bearing mice; assay type: in vivo, C57Bl/6J mice
Procedure: In vivo experiments were conducted in male C57BL/6J mice (18-25 g), housed at 22 ± 2°C under a 12/12 h light/dark cycle with free access to food and water until use. The animals were acclimatized to the laboratory for at least 24 h before testing and were used only once. All animal handling and experimental procedures were conducted with prior approval of the ethics committee on animal use of the University of São Paulo Medical School Hospital Ethics Committee.
To mice experimentations, the simvastatin compressed powders were macerated and watery solutions were made.
All animal's procedures were made in Butantan Institute with supervision of Dr. Durvanei Augusto Maria, in accordance with University of Sao Paulo Medical School Hospital Ethics Committee. Briefly, 5 × 10^4 B16F10 melanoma cells were injected subcutaneously into C57Bl/6J mice. […] Tumors were measured using a caliper and volume was estimated using the formula V = (small diameter)^2 × (large diameter)/¾ πR [13].
Tumor growth data were analyzed by Student's t test, survival rate data were analyzed by Kaplan-Meyer curves and hematological data were analyzed by one-way ANOVA with Tukey posttest using Graph Pad Prism Stat version 4.0 for Windows.

[4] = Bone marrow and spleen cellularity; assay type: in vivo, C57BL/6J mice
Procedure: (§1) C57BL/6J mice, weighing about 20 g and 60 days older were used. After the experiments, blood was collected from the axillary plexus. The bone marrow was collected from the femur of the same animals. The spleen cellularities were also analyzed.
The animals were first anesthetized, exsanguinated and sacrificed by cervical dislocation. The bone marrow was obtained by washing the cavity with the culture femoral McCoy's 5A modified (Sigma, Chemical Company, USA) ice cream.
Sleen cells were collected by the same sacrificed animals of hematological procedures. The spleen was transferred to plastic Petri dish with iced culture McCoy's 5A modified (Sigma, Chemical Company, USA) containing 10% EDTA, used to collect the cells. In the Petri dish, the spleen capsule was broken in one of its ends, with the aid of two needles bent into "L", and fixed in syringes. The cells were gently removed from the dish by the dissociation method. The suspension was homogenized in the Petri dish with standard Pasteur pipette to complete cell separation and transferred to conical plastic tube and kept in an ice bath. The cells obtained from the spleen were quantified in a Neubauer chamber hemocytometer after dilution of 1:500 liquid Turk, diluent composed of 1% solution of glacial acetic acid. For morphological evaluation, the slides were performed in cell suspension cellspin cytocentrifuge (Incibras) and subsequently submitted to the staining of May-Grunwald GIENS, modified by Rosenfeld, and peroxidase method modified by Graham Knoll, for identification and quantification of different types cell.

[5] = Blood cells evaluation; assay type: in vivo, C57BL/6J mice; settings: mean ± S.E.M., seven animals
Procedure: as §1
Blood samples were collected twenty days after tumor implant from the axillary plexus of the animals in all experimental groups, which were used to perform blood and reticulocyte count, according to the techniques used in the Laboratory of Experimental Hematology of FCF/USP [14].

[6] = mice bearing melanoma treated with same doses
[7] = mice without tumor (Control-Simvastatin), vs control
[8] = melanoma bearing mice (Tumor-Simvastatin), twenty days after implant
[9] = mice without tumor (Control-Simvastatin)

Q: What does the source list for `CCC(C)(C)C(=O)O[C@H]1C[C@@H](C)C=C2C=C[C@H](C)[C@H](CC[C@@H]3C[C@@H](O)CC(=O)O3)[C@H]21` [simvastatin, Simvastatin]?
A: toxic effect on B16F10 cells ([1]; 0.8 μM): toxic effect; toxic effect on B16F10 cells ([1]; 1.6 μM): toxic effect; toxicity (cell death) in the first 24 h of incubation ([1]; 1.6 μM, first 24 h): massive death; number of viable cells, trypan blue assay ([1]; cultured melanoma, after 48 hours, vs vehicle-treated): reduces the number of viable cells; cell cycle effect ([2]; 24 hours): early cell cycle arrest in G0/G1; hypodiploid cells ([2]; after G0/G1 arrest): increase of hypodiploid cells; final tumor sizing compared to the controls ([3]; 5 mg/Kg/day orally for 10 days, started 10 days after inoculation): 25%; treated mice with a survival of 28 days (Kaplan-Meyer) ([3]; 5 mg/Kg/day orally, no survival mice of control group on day 24): Twenty-five percent; total tumoral regression ([3]; melanoma bearing mice, tumor re-started to grow when treatment aborted): not developed; tumor inhibition (B16F10 tumor growth) ([3]; over 10 days period): approximately 75%; Femoral Bone Marrow cellularity [4, 6]: equal; Spleen cellularity [4, 6]: equal; Femoral Bone Marrow cellularity [4, 7]: decreased; Spleen cellularity [4, 7]: decreased; Eosinophils [5, 8]: 8.5 ± 3.0 %; Hemoglobin [5, 8]: 12.4 ± 1.2 g/dL; Total Leukocytes [5, 8]: 3.9 ± 0.8 * 103/mm3; Eosinophils [5, 9]: 4.7 ± 1.4%; Hemoglobin [5, 9]: 12.8 ± 1.9 g/dL; Total Leukocytes [5, 9]: 3.3 ± 0.1 * 103/mm3
